Read-outs that look alike come from different tables or passages of the source.
Assays:
[1] = test system: HeLa; test: MTS proliferation assay, HeLa; format: cell-based, human; settings: 72 h incubation, read-out: MTS proliferation assay IC 50 HeLa
Procedure: (§1) Cell lines are cultured in RPMI-1640 tissue culture medium containing either 5% or 10% fetal calf serum, 0.05 mM 2-mercaptoethanol, 2 mM glutamine and penicillin/streptomycin 50 μg/ml (complete medium) (Sigma, Buchs, Switzerland). General growth conditions are 37° C. and 7.5% CO2.
(§2) The following human cell lines (either EGFP transfected or not) are being used: HeLa (ATCC: CCL-2), KB (ATCC: CCL-17), MCF7 (ATCC: HTB-22), SK-BR-3 (ATCC: HTB-30), SK-Mel 1 (ATCC: HTB-67), SK-Mel 28 (ATCC: HTB-72), PC-3 (ATCC: CRL-1435), SW 480 (ATCC: CCL-228), NCl-H460 (ATCC: HTB-177), NCl-H1792 (ATCC: CRL-5895), HT1080 (ATCC: CCL-21), Jurkat (ATCC: TIB-152), Ramos (ATCC: CRL-1596), Raji (ATCC: CCL-86), H9 (ATCC: HTB-176), Hut78 (ATCC: TIB-161), K562 (ATCC: CCL 243), HL-60 (ATCC: CCL 240), U-87MG (ATCC: HTB-14), HepG2 (ATCC: HB-8065), U-2 OS (ATCC: HTB-96), Saos-2 (ATCC: HTB-85), U937 (ATCC: CRL 1593), Hs 578T (ATCC: HTB 126), HBL-100 (ATCC: HTB 124), Molt-4 (ATCC: CRL 1582).
(§3) The assay is performed in 96 well tissue culture plates. The cells (range: 1.5*10^3-10^4) are seeded out in 80 μl complete medium 24 h prior to compound treatment. The test compounds are added in 20 μl complete medium containing max 5% DMSO. The final compound concentrations in the assays are 10 μM, 3 μM, 1 μM and 0.3 μM, respectively. The assay plates are incubated for 72 h at culture conditions. The MTS reagent is prepared according to the manufacturer's protocol (Promega G1111). 20 μl MTS reagent are added to each well, the assay plates are quickly spun and incubated for another 3 h at culture conditions. Subsequently, the plates are shortly shaked and absorption measured with a microplate-reader at 492 nm.

[2] = test system: adherent cells or suspension cells; test: Hoechst 33342 nuclear staining (fraction of apoptotic nuclei); format: cell-based; parameters: key: 0 relating to no activity; 1 relating to weak activity comprising less than 70% of the cells; score 2 relating to strong activity comprising more than 70% of the cells
Procedure: as §1
This assay is performed in 96 well tissue culture plates. Appropriate number of cells (adherent cells: 3-5*10^3, suspension cells: 8-10*10^3) are being seeded out in 80 μl complete medium. Adherent cells are incubated for 24 h for proper spreading out before addition of test compounds while suspension cells are immediately treated with test compounds after seeding out. The test compounds are added in 20 μl complete medium containing max 5% DMSO. […] After 24 h or 48 h incubation at culture conditions, 10 μl medium containing Hoechst 33342 dye (Sigma B-2261) at 2-5 μg/ml are added to each well. The assay plates are then further incubated for 30 minutes and subsequently analyzed with a standard inverted fluorescence microscope.
The readout allows the determination of the fraction of apoptotic nuclei as well as other morphological criteria specific for apoptosis as a function of the treatment. The following scores are used: 0 relating to no activity, 1 relating to weak activity comprising less than 70% of the cells and score 2 relating to strong activity comprising more than 70% of the cells.

[3] = test system: Jurkat; test: MTS proliferation assay, Jurkat; format: cell-based, human; settings: 72 h incubation, read-out: MTS proliferation assay IC 50 Jurkat
Procedure: as §1, §2, §3

[4] = test system: MRC5; test: MTS proliferation assay, MRC5; format: cell-based; settings: MRC5, 72 h incubation, read-out: MTS proliferation assay IC 50 MRC5
Procedure: as §1, §3

| SMILES | IC50 [1] [nM] | IC50 [3] [nM] | IC50 ([1]; Homo sapiens) [nM] | IC50 ([3]; Homo sapiens) [nM] | Hoechst 33342 nuclear staining score ([2]; H460, conc 0.01 μm) | Hoechst 33342 nuclear staining score ([2]; H460, conc 0.1 μm) | Hoechst 33342 nuclear staining score ([2]; H460, conc 1 μm) | Hoechst 33342 nuclear staining score ([2]; HeLa, conc 0.01 μm) | Hoechst 33342 nuclear staining score ([2]; HeLa, conc 0.1 μm) | Hoechst 33342 nuclear staining score ([2]; HeLa, conc 1 μm) | Hoechst 33342 nuclear staining score ([2]; MRC5, conc 0.01 μm) | Hoechst 33342 nuclear staining score ([2]; MRC5, conc 0.1 μm) | Hoechst 33342 nuclear staining score ([2]; MRC5, conc 1 μm) | Hoechst 33342 nuclear staining score ([2]; PBLs, conc 0.01 μm) | Hoechst 33342 nuclear staining score ([2]; PBLs, conc 0.1 μm) | Hoechst 33342 nuclear staining score ([2]; PBLs, conc 1 μm) | IC50 [4] [nM] | Hoechst 33342 nuclear staining score ([2]; Jurkat, conc 0.01 μm) | Hoechst 33342 nuclear staining score ([2]; Jurkat, conc 0.1 μm) | Hoechst 33342 nuclear staining score ([2]; Jurkat, conc 1 μm) | also measured |
| --- | --- | --- | --- | --- | --- | --- | --- | --- | --- | --- | --- | --- | --- | --- | --- | --- | --- | --- | --- | --- | --- |
| Nc1nonc1-c1nc2ccccc2n1CC(=O)c1ccccc1 [Example 1, 4-(1-Phenacyl-1H-benzimidazol-2-yl)-furazan-3-ylamine] |  |  | 100 to 1000 | 10 to 100 | 0 | 0 | 2 (score 2 relating to strong activity comprising more than 70% of the cells) | 0 | 0 | 2 (score 2 relating to strong activity comprising more than 70% of the cells) | 0 | 0 | 1 (1 relating to weak activity comprising less than 70% of the cells) | 0 | 0 | 0 |  | 0 | 0 | 2 (score 2 relating to strong activity comprising more than 70% of the cells) | IC50 ([4]; Homo sapiens): > 1000 nM |
| Nc1nonc1-c1nc2ccccc2n1CC(=NO)c1ccc(Br)cc1 [Example 2, 4-[1-(4-Bromophenacyl)-1H-benzimidazol-2-yl]-furazan-3-ylamine oxime] |  |  | > 1000 | > 1000 | 0 | 0 | 0 | 0 | 0 | 0 | 0 | 0 | 0 | 0 | 0 | 0 |  | 0 | 0 | 0 | IC50 ([4]; Homo sapiens): > 1000 nM |
| CC(=O)Nc1nonc1-c1nc2ccccc2n1CC(=O)c1ccc(Cl)cc1 [Example 5, N-{4-[1-(4-Chlorophenacyl)-1H-benzimidazol-2-yl]-furazan-3-yl}-acetamide] |  |  | 100 to 1000 | 100 to 1000 |  |  |  | 0 | 0 | 2 (score 2 relating to strong activity comprising more than 70% of the cells) | 0 | 0 | 0 | 0 | 0 | 0 |  | 0 | 0 | 2 (score 2 relating to strong activity comprising more than 70% of the cells) | IC50 ([4]; Homo sapiens): 100 to 1000 nM |
| COc1cccc(C(=O)Cn2c(-c3nonc3N)nc3ccccc32)c1 [Example 23] | 100 to 1000 | 100 to 1000 |  |  |  |  |  | 0 | 0 | 2 (score 2 relating to strong activity comprising more than 70% of the cells) | 0 | 0 | 0 | 0 | 0 | 0 | 100 to 1000 | 0 | 0 | 2 (score 2 relating to strong activity comprising more than 70% of the cells) |  |

Second part, led by results:

| IC50 [1] [nM] | IC50 [3] [nM] | IC50 ([1]; Homo sapiens) [nM] | IC50 ([3]; Homo sapiens) [nM] | SMILES | Hoechst 33342 nuclear staining score ([2]; H460, conc 0.01 μm) | Hoechst 33342 nuclear staining score ([2]; H460, conc 0.1 μm) | Hoechst 33342 nuclear staining score ([2]; H460, conc 1 μm) | Hoechst 33342 nuclear staining score ([2]; HeLa, conc 0.01 μm) | Hoechst 33342 nuclear staining score ([2]; HeLa, conc 0.1 μm) | Hoechst 33342 nuclear staining score ([2]; HeLa, conc 1 μm) | Hoechst 33342 nuclear staining score ([2]; MRC5, conc 0.01 μm) | Hoechst 33342 nuclear staining score ([2]; MRC5, conc 0.1 μm) | Hoechst 33342 nuclear staining score ([2]; MRC5, conc 1 μm) | Hoechst 33342 nuclear staining score ([2]; PBLs, conc 0.01 μm) | Hoechst 33342 nuclear staining score ([2]; PBLs, conc 0.1 μm) | Hoechst 33342 nuclear staining score ([2]; PBLs, conc 1 μm) | IC50 [4] [nM] | Hoechst 33342 nuclear staining score ([2]; Jurkat, conc 0.01 μm) | Hoechst 33342 nuclear staining score ([2]; Jurkat, conc 0.1 μm) | Hoechst 33342 nuclear staining score ([2]; Jurkat, conc 1 μm) | also measured |
| --- | --- | --- | --- | --- | --- | --- | --- | --- | --- | --- | --- | --- | --- | --- | --- | --- | --- | --- | --- | --- | --- |
| 100 to 1000 | 100 to 1000 |  |  | CON=C(Cn1c(-c2nonc2N)nc2ccccc21)c1cccc(Cl)c1 (mixture of isomers) [Example 37] | 0 | 0 | 0 | 0 | 0 | 0 | 0 | 0 | 1 (1 relating to weak activity comprising less than 70% of the cells) | 0 | 0 | 0 | 100 to 1000 |  |  |  | Hoechst 33342 nuclear staining score ([2]; Jily, conc 0.01 μm): 0; Hoechst 33342 nuclear staining score ([2]; Jily, conc 0.1 μm): 0; Hoechst 33342 nuclear staining score ([2]; Jily, conc 1 μm): 2 (score 2 relating to strong activity comprising more than 70% of the cells) |
| 100 to 1000 | 100 to 1000 |  |  | CON=C(Cn1c(-c2nonc2N)nc2ccccc21)c1ccc(OC)cc1 (mixture of isomers) [Example 38] | 0 | 0 | 0 | 0 | 0 | 0 | 0 | 0 | 0 | 0 | 0 | 0 | > 1000 | 0 | 0 | 0 | Hoechst 33342 nuclear staining score ([2]; Jily, conc 0.01 μm): 0; Hoechst 33342 nuclear staining score ([2]; Jily, conc 0.1 μm): 0; Hoechst 33342 nuclear staining score ([2]; Jily, conc 1 μm): 0 |

— USRE42890E1, “Furazanobenzimidazoles” (Basilea Pharmaceutica AG, priority 2003, dated 2011)
